Test results published in US8097656B2, “Nitrogenated trans-stilbene analogs, method for the obtention and medical applications thereof” (Dominion Pharmakine S.L, priority 2005, dated 2012).

Experiments:
MB16 cells [1] = test: In vitro proliferation of MB16 cells in response to murine HSC soluble factors; assay type: cell-based; conditions: for Increase in proliferation of B16 cells by MC-CEH (in words): 2.5 μM for 30 minutes before MC-CEH, 48 hours; for Proliferation of MB16 cells in response to murine HSC soluble factors (No. cells per well): 2.5 μM, 30 min before HSC-conditioned media, 48 h, control 16300 ± 300, treatment alone 21660 ± 500
Method: Culture of B16 (MB16) and A375 (MA375) melanoma cells. The MB 16 (B16F10 subline) murine tumor cells were cultured at 37° C., with 5% CO2 atmosphere in Dulbecco's modified Eagle's medium (DMEM)-HCO3 penicillin (100 U/ml), streptomycin (100 μg/ml), supplemented with 5% fetal bovine serum and adjusted to pH 7.4. The cells were maintained and subcultured according to the method described by Vidal-Vanaclocha et al. (1994) [Vidal-Vanaclocha, F., Amézaga, C., Asumendi, A., Kaplanski, G. & Dinarello, C. A. Interleukin-1 receptor blockade reduces the number and size of murine B16 melanoma hepatic metastases. Cancer Research, 1994, 54, 2667-2672]. The conditioned media were obtained from subconfluyent cultures maintained in absence of FBS for 24 hours.
In vitro Melanoma cell proliferation test. The MB16 or MA375 cells are seeded (2500 cells/well/200 μl) in DMEM medium (Dulbecco's modified Eagle's medium) with 10% fetal bovine serum (FBS). Once adhered, they were washed to remove the FBS and fresh medium was added in the presence or absence of 2.5 μM of the compounds to be tested. In the experiments with MA375, the compound azaresveratrol (see Table 4) was used, and in the experiments with MB16 cells, the compounds azaresveratrol, JE1:2, JE2:1 or JE2:2 (see FIG. 3) were used. Thirty (30) minutes later, 10 ng/ml of IL-18 or HSC-conditioned media (murines in the case of B16 and human ones in the case of A375) were added to some wells, and the plates were incubated for 48 hours at 37° C. with 5% CO2 Upon completion of the incubation period, the cells were fixed with […] for 1 hours, were washed and were allowed to dry in the incubator at 50° C. for 30 minutes. In following, 100 μl/well of sulforhodamine 101 (0.4% p/v) was added and they were incubated at room temperature in the dark for 30 minutes. After washing, 200 μl/well of Tris base 10 mM pH 10.5 was added and the fluorescence was measured by means of a 530 nm, 620 nm emission excitation filter plate fluorescence reader. The number of cells was calculated by extrapolating said fluorescence data on a standard straight line previously obtained based on the fluorescence emitted in an increasing number of cells.

MB16 cells [2] = test: Hydrogen peroxide production from MB16 cells (DCFH-DA probe); assay type: cell-based, murine; conditions: 2.5 μM prior to IL-18; for H2O2 production by MB16 cells treated with IL-18: control 16.0 ± 3, IL-18 alone 34 ± 3.0
Method: Determination of hydrogen peroxide production from HSE and MB16 cells. Primary cultures of HSE cells were treated with 10 μg/ml of the DCFH-DA fluorescent probe for 30 minutes at 37° C. and were washed to eliminate the excess fluorochromium. Afterward, fresh culture medium was added thereto in the presence or absence of 2.5 μM of the compounds JE1:2, JE2:1 or JE2:2 and the production of H202 over the course of time was determined (see FIG. 5). The hydrogen peroxide produced by the cells oxidizes the probe, converting it into a fluorescent molecule. Thus, the cell fluorescence produced by the accumulation of DCF made it possible to detect the intracellular production of hydrogen peroxide. In each cell well, it was possible to determine the relative fluorescence value (arbitrary units of fluorescence brightness) in relation to the quantity of hydrogen peroxide produced at different incubation times. In the experiments with MB16 cells, once the cells had been marked with the DCFH-DA probe, they were incubated for 300 minutes with 2.5 μM of the azaresveratrol or JE2:2 compounds, 10 ng/ml of IL-18 (FIG. 4) then having been added.

HSE cells = test: Migration of HSE cells treated with MC-MA375 (modified Boyden chamber); assay type: cell-based, human; conditions: for Increase in migration of HSE induced by MC-A375 (in words): 12.5 μM 30 min prior to MC-A375; for Migration of HSE's treated with MC-MA375 (No. cells per field): 12.5 μM, 30 min before MC-MA375, 24 h, control 10.0 ± 4, treatment alone 35.0 ± 8.0
From the text: isolation of primary human cultures of hepatic sinusoidal endothelial (HSE) hepatic stellate cells (HSCs). The primary cultures of human HSE and HSC cells were obtained by non-tumoral hepatic tissue serial profusion with collagenase and pronase solutions, followed by Nycodenz gradient and seeded on 24-well plates (0.5×10^4 cells/cm^2) in DMEM. supplemented with 10% FBS.
Human HSC and HSE cell migration tests (see Table 3). Primary cultured hepatic endothelial cells (25×10^5) or hepatic stellate cells (2×10^4) were seeded in the upper compartment of modified Boyden chambers equipped with a polycarbonate filter of an 8 μm pore size. Some cells were incubated in the presence or absence of 12.5 μM of azaresveratrol, 30 minutes prior to adding conditioned tumor medium. Twenty-four (24) hours later (in the case of the endothelial cells) or 4 hours later (in the case of hepatic star cells) the number of cells having passed through the membrane was determined. The cells were fixed, were stained with hematoxylin eosine and were counted under the microscope (20×) in 5 fields per well.

Oc1ccc(/N=C/c2cc(O)cc(O)c2)cc1 [azaresveratrol, 5-((E)-(4-Hydroxyphenylimino)methyl)benzene-1,3-diol]
Increase in proliferation of B16 cells by MC-CEH (in words) (MB16 cells [1]): prevented
Proliferation of MB16 cells in response to murine HSC soluble factors (No. cells per well) (MB16 cells [1]): 16750 ± 135 No. cells per well
Increase of H2O2 production of MB16 cells in response to IL-18 (in words) (MB16 cells [2]): significantly (P<0.01) inhibited
H2O2 production by MB16 cells treated with IL-18 (MB16 cells [2]): 10 ± 2.0
Increase in migration of HSE induced by MC-A375 (in words) (HSE cells): abolished
Migration of HSE's treated with MC-MA375 (No. cells per field) (HSE cells): 15.5 ± 30 No. cells per field

Oc1ccc(C=Cc2cc(O)cc(O)c2)cc1 [resveratrol, reference compound]
Increase in proliferation of B16 cells by MC-CEH (in words) (MB16 cells [1]): prevented
Proliferation of MB16 cells in response to murine HSC soluble factors (No. cells per well) (MB16 cells [1]): 16800 ± 250 No. cells per well
Increase of H2O2 production of MB16 cells in response to IL-18 (in words) (MB16 cells [2]): significantly (P<0.01) inhibited
H2O2 production by MB16 cells treated with IL-18 (MB16 cells [2]): 12 ± 1.0
Increase in migration of HSE induced by MC-A375 (in words) (HSE cells): abolished
Migration of HSE's treated with MC-MA375 (No. cells per field) (HSE cells): 13.5 ± 5.0 No. cells per field
